Reference: PMC5433425 (PeerJ, 2017)
Converted amounts (≈) assume the structure as drawn. Where two headings read alike, the source gives them in different places.

Columns and labels:
E. coli AG100 [1] = test: Membrane potential assay (BacLight, DiOC2(3)); details: positive control 156 µM (half MIC)
[2] = test system: E. coli K-12 AG100 (wild-type); test: MIC, broth microdilution; format: cell-based; details: Escherichia coli
[3] = test system: E. coli AG100A (AcrAB pump-deficient); test: MIC, broth microdilution; format: cell-based, Escherichia coli; details: Escherichia coli
[4] = test system: E. coli AG100tet (AcrAB overexpressing); test: MIC, broth microdilution; format: cell-based, Escherichia coli; details: Escherichia coli
E. coli AG100 [5] = test: Checkerboard synergy assay (MIC of antibiotics/EtBr with efflux inhibitor); format: cell-based, Escherichia coli; details: Escherichia coli
Procedure: (§1) The assays were performed in triplicate and the MIC value was given as result of at least two concordant values.

E. coli AG100A [6] = test: microbe, parasite or virus in culture; format: cell-based, Escherichia coli; details: Escherichia coli, AG100A, read-out: MIC without efflux inhibitor
Procedure: The minimum inhibitory concentrations (MICs) were determined using the broth microdilution method according to the CLSI guidelines ([Clinical and Laboratory Standards Institute, 2014]). […] Two-fold serial dilutions of the compounds were made to achieve the following concentrations: 320 µM–40 µM. The MICs were determined as the lowest concentration at which no visible growth was observed after 18 h of incubation at 37 °C. The assays were performed in triplicate and the MIC value was given as result of at least two concordant values.

E. coli AG100tet [7] = test: microbe, parasite or virus in culture; format: cell-based, Escherichia coli; details: Escherichia coli, AG100TET, read-out: MIC without efflux inhibitor, AG100tet; inhibitor 0 μM
Procedure: as §1

E. coli AG100A [8] = details: AG100A
E. coli AG100 [9] = test: EtBr accumulation by real-time fluorometry
E. coli AG100tet [10] = test: EtBr accumulation by real-time fluorometry; details: AG100tet

Structure (SMILES): N#CC(C#N)=NNc1cccc(Cl)c1 [CCCP, carbonyl cyanide-m-chlorophenylhydrazone]
- percentage of depolarized cells (membrane potential collapse) (E. coli AG100 [1]): over 95%

Structure (SMILES): CC[n+]1c(-c2ccccc2)c2cc(N)ccc2c2ccc(N)cc21 [EtBr, ethidium bromide]
- MIC [2]: 200 µg/mL
- MIC [3]: 3.12 µg/mL
- MIC [4]: 512 µg/mL
- MIC (E. coli AG100 [5]; AG100, read-out: MIC without efflux inhibitor): 200 µg/mL
- MIC (E. coli AG100A [6]): 3.12 µg/mL
- MIC (E. coli AG100tet [7]): 512 µg/mL
- equilibrium concentration (influx equals efflux) (E. coli AG100A [8]): 0.25 µg/mL
- equilibrium concentration (influx equals efflux) (E. coli AG100 [9]; AG100): 1 µg/mL
- EtBr fluorescence (E. coli AG100 [9]; EtBr 0.5 µg/ml, cycle 1): 3.237
- EtBr fluorescence (E. coli AG100 [9]; EtBr 0.5 µg/ml, cycle 7): 3.883
- EtBr fluorescence (E. coli AG100 [9]; EtBr 0.5 µg/ml, cycle 8): 4.039
- EtBr fluorescence (E. coli AG100 [9]; EtBr 0.5 µg/ml, cycle 9): 4.222
- EtBr fluorescence (E. coli AG100 [9]; EtBr 0.5 µg/ml, cycle 10): 4.226
- EtBr fluorescence (E. coli AG100 [9]; EtBr 0.5 µg/ml, cycle 11): 4.3568
- EtBr fluorescence (E. coli AG100 [9]; EtBr 0.5 µg/ml, cycle 12): 4.419
- EtBr fluorescence (E. coli AG100 [9]; EtBr 0.5 µg/ml, cycle 13): 4.6831
- EtBr fluorescence (E. coli AG100 [9]; EtBr 0.5 µg/ml, cycle 14): 4.514
- EtBr fluorescence (E. coli AG100 [9]; EtBr 0.5 µg/ml, cycle 15): 4.795
- EtBr fluorescence (E. coli AG100 [9]; EtBr 0.5 µg/ml, cycle 16): 4.926
- EtBr fluorescence (E. coli AG100 [9]; EtBr 0.5 µg/ml, cycle 17): 4.878
- EtBr fluorescence (E. coli AG100 [9]; EtBr 0.5 µg/ml, cycle 18): 4.912
- EtBr fluorescence (E. coli AG100 [9]; EtBr 0.5 µg/ml, cycle 19): 5.122
- EtBr fluorescence (E. coli AG100 [9]; EtBr 0.5 µg/ml, cycle 20): 5.073
- EtBr fluorescence (E. coli AG100 [9]; EtBr 0.5 µg/ml, cycle 21): 5.194
- EtBr fluorescence (E. coli AG100 [9]; EtBr 0.5 µg/ml, cycle 22): 5.233
- EtBr fluorescence (E. coli AG100 [9]; EtBr 0.5 µg/ml, cycle 23): 5.309
- EtBr fluorescence (E. coli AG100 [9]; EtBr 0.5 µg/ml, cycle 24): 5.461
- EtBr fluorescence (E. coli AG100 [9]; EtBr 0.5 µg/ml, cycle 25): 5.593
- EtBr fluorescence (E. coli AG100 [9]; EtBr 0.5 µg/ml, cycle 26): 5.584
- EtBr fluorescence (E. coli AG100 [9]; EtBr 0.5 µg/ml, cycle 27): 5.69
- EtBr fluorescence (E. coli AG100 [9]; EtBr 0.5 µg/ml, cycle 28): 5.64
- EtBr fluorescence (E. coli AG100 [9]; EtBr 0.5 µg/ml, cycle 29): 5.6965
- EtBr fluorescence (E. coli AG100 [9]; EtBr 0.5 µg/ml, cycle 30): 5.739
- EtBr fluorescence (E. coli AG100 [9]; EtBr 1 µg/ml, cycle 1): 4.697
- EtBr fluorescence (E. coli AG100 [9]; EtBr 1 µg/ml, cycle 2): 4.852
- EtBr fluorescence (E. coli AG100 [9]; EtBr 1 µg/ml, cycle 3): 5.005
- EtBr fluorescence (E. coli AG100 [9]; EtBr 1 µg/ml, cycle 4): 5.143
- EtBr fluorescence (E. coli AG100 [9]; EtBr 1 µg/ml, cycle 5): 5.505
- EtBr fluorescence (E. coli AG100 [9]; EtBr 1 µg/ml, cycle 6): 5.767
- EtBr fluorescence (E. coli AG100 [9]; EtBr 1 µg/ml, cycle 7): 5.841
- EtBr fluorescence (E. coli AG100 [9]; EtBr 1 µg/ml, cycle 8): 6.0562
- EtBr fluorescence (E. coli AG100 [9]; EtBr 1 µg/ml, cycle 9): 6.088
- EtBr fluorescence (E. coli AG100 [9]; EtBr 1 µg/ml, cycle 10): 6.339
- EtBr fluorescence (E. coli AG100 [9]; EtBr 1 µg/ml, cycle 11): 6.446
- EtBr fluorescence (E. coli AG100 [9]; EtBr 1 µg/ml, cycle 12): 6.666
- EtBr fluorescence (E. coli AG100 [9]; EtBr 1 µg/ml, cycle 13): 6.748
- EtBr fluorescence (E. coli AG100 [9]; EtBr 1 µg/ml, cycle 14): 6.978
- EtBr fluorescence (E. coli AG100 [9]; EtBr 1 µg/ml, cycle 15): 7.028
- EtBr fluorescence (E. coli AG100 [9]; EtBr 1 µg/ml, cycle 16): 7.227
- EtBr fluorescence (E. coli AG100 [9]; EtBr 1 µg/ml, cycle 17): 7.381
- EtBr fluorescence (E. coli AG100 [9]; EtBr 1 µg/ml, cycle 18): 7.326
- EtBr fluorescence (E. coli AG100 [9]; EtBr 1 µg/ml, cycle 19): 7.434
- EtBr fluorescence (E. coli AG100 [9]; EtBr 1 µg/ml, cycle 20): 7.666
- EtBr fluorescence (E. coli AG100 [9]; EtBr 1 µg/ml, cycle 21): 7.737
- EtBr fluorescence (E. coli AG100 [9]; EtBr 1 µg/ml, cycle 22): 7.695
- EtBr fluorescence (E. coli AG100 [9]; EtBr 1 µg/ml, cycle 23): 7.798
- EtBr fluorescence (E. coli AG100 [9]; EtBr 1 µg/ml, cycle 24): 7.86
- EtBr fluorescence (E. coli AG100 [9]; EtBr 1 µg/ml, cycle 25): 7.955
- EtBr fluorescence (E. coli AG100 [9]; EtBr 1 µg/ml, cycle 26): 7.794
- EtBr fluorescence (E. coli AG100 [9]; EtBr 1 µg/ml, cycle 27): 7.948
- EtBr fluorescence (E. coli AG100 [9]; EtBr 1 µg/ml, cycle 28): 8.04
- EtBr fluorescence (E. coli AG100 [9]; EtBr 1 µg/ml, cycle 29): 8.111
- EtBr fluorescence (E. coli AG100 [9]; EtBr 1 µg/ml, cycle 30): 8.205
- EtBr fluorescence (E. coli AG100 [9]; EtBr 2 µg/ml, cycle 1): 9.029
- EtBr fluorescence (E. coli AG100 [9]; EtBr 2 µg/ml, cycle 2): 9.296
- EtBr fluorescence (E. coli AG100 [9]; EtBr 2 µg/ml, cycle 3): 9.71
- EtBr fluorescence (E. coli AG100 [9]; EtBr 2 µg/ml, cycle 4): 9.991
- EtBr fluorescence (E. coli AG100 [9]; EtBr 2 µg/ml, cycle 5): 10.2954
- EtBr fluorescence (E. coli AG100 [9]; EtBr 2 µg/ml, cycle 12): 12.653
- EtBr fluorescence (E. coli AG100 [9]; EtBr 2 µg/ml, cycle 13): 13.0282
- EtBr fluorescence (E. coli AG100 [9]; EtBr 2 µg/ml, cycle 14): 13.3381
- EtBr fluorescence (E. coli AG100 [9]; EtBr 2 µg/ml, cycle 15): 13.5191
- EtBr fluorescence (E. coli AG100 [9]; EtBr 2 µg/ml, cycle 16): 13.6733
- EtBr fluorescence (E. coli AG100 [9]; EtBr 2 µg/ml, cycle 17): 14.0513
- EtBr fluorescence (E. coli AG100 [9]; EtBr 2 µg/ml, cycle 18): 14.1241
- EtBr fluorescence (E. coli AG100 [9]; EtBr 2 µg/ml, cycle 19): 14.4449
- EtBr fluorescence (E. coli AG100 [9]; EtBr 2 µg/ml, cycle 20): 14.643
- EtBr fluorescence (E. coli AG100 [9]; EtBr 2 µg/ml, cycle 21): 14.9287
- EtBr fluorescence (E. coli AG100 [9]; EtBr 2 µg/ml, cycle 22): 15.1966
- EtBr fluorescence (E. coli AG100 [9]; EtBr 2 µg/ml, cycle 23): 15.196
- EtBr fluorescence (E. coli AG100 [9]; EtBr 2 µg/ml, cycle 24): 15.3241
- EtBr fluorescence (E. coli AG100 [9]; EtBr 2 µg/ml, cycle 25): 15.6489
- EtBr fluorescence (E. coli AG100 [9]; EtBr 2 µg/ml, cycle 26): 15.801
- EtBr fluorescence (E. coli AG100 [9]; EtBr 2 µg/ml, cycle 27): 15.8722
- EtBr fluorescence (E. coli AG100 [9]; EtBr 2 µg/ml, cycle 28): 16.0341
- EtBr fluorescence (E. coli AG100 [9]; EtBr 2 µg/ml, cycle 29): 16.3924
- EtBr fluorescence (E. coli AG100 [9]; EtBr 2 µg/ml, cycle 30): 16.548
- equilibrium concentration (influx equals efflux) (E. coli AG100tet [10]): 2 µg/mL

Structure (SMILES): CN(C)[C@@H]1C(O)=C(C(N)=O)C(=O)[C@@]2(O)C(O)=C3C(=O)c4c(O)cccc4[C@@](C)(O)[C@H]3C[C@@H]12 [TET, tetracycline]
- MIC [3]: 0.5 µg/mL (≈ 1.13 µM)
- MIC [4]: 64 µg/mL (≈ 144 µM)
- MIC (E. coli AG100A [6]): 0.5 µg/mL (≈ 1.13 µM)
- MIC (E. coli AG100tet [7]): 64 µg/mL (≈ 144 µM)

Structure (SMILES): Cc1onc(-c2ccccc2)c1C(=O)N[C@@H]1C(=O)N2[C@@H]1SC(C)(C)[C@@H]2C(=O)O [OXA, oxacillin]
- MIC ([2]; E. coli AG100 wild-type, read-out: MIC): 512 µg/mL (≈ 1280 µM)
- MIC [3]: 2 µg/mL (≈ 4.98 µM)
- MIC [4]: > 2050 µg/mL
- MIC (E. coli AG100 [5]; AG100, AG100, inhibitor 0 μM, read-out: MIC without efflux inhibitor): 512 µg/mL
- MIC (E. coli AG100A [6]): 2 µg/mL (≈ 4.98 µM)
- MIC (E. coli AG100tet [7]): > 2050 µg/mL
